Laboratory results reported in patent US7910344B2, “Proteins having tyrosinase activity” (Valtion teknillinen tutkimuskeskus, priority 2005, dated 2011).
Read-outs that look alike come from different tables or passages of the source. Blank lines part the entries; values can stand above or below the compound they belong to.

Key:
TYR2 [1] = experiment: Substrate specificity by oxygen consumption measurements, purified TYR2; assay type: biochemical, Trichoderma reesei
Experimental: (§1) pH optimum for the tyrosinase was studied by oxygen consumption measurements. Measurements were performed with a single channel oxygen meter (Precision sensing GmbH, Germany) containing fiber-optic oxygen minisensors with measurement range 0-100% oxygen. L-Dopa in 15 mM concentration, dissolved in 0.1 M sodium phosphate buffer, pH 7.0, was used as substrate. Reactions were carried out with 1.8 ml substrate solution and with 4.3 μg of the purified T. reesei tyrosinase. Three different buffers were used according to their buffer capacity. McIlvaine buffer was used within a pH range of 2-7, Tris-HCl buffer (50 mM) within a pH range 7-9 and borate buffer (12.5 mM) within a pH range of 8-9.5. […] In the measurements with Tris-HCl buffer in pH 8, 8.5 and 9.0 also a blank test without enzyme addition was performed to correct the effect of auto-oxidation in results.
(§2) Substrate specificity of the tyrosinase on various selected substrates was studied by oxygen consumption measurements. The concentration of substrates was 2.5 mM, and the compounds were dissolved in 0.1 M sodium phosphate buffer, pH 7.0. Reactions were carried out with 1.8 ml of 2.5 mM substrate solutions and with 24 μg of the purified TYR2. As a reference the substrate specificity assays were also determined for the commercial Agaricus bisporus crude tyrosinase (Sigma). Respectively, 50 μg of said mushroom tyrosinase was used in the assays. Activity of TYR2 and Agaricus tyrosinase were analyzed on selected model peptides containing tyrosine in different positions in the peptide chain (Table 5). Oxidation of L-/DL-D-Dopa and -tyrosine by TYR2 and Agaricus tyrosinase was also measured (Table 6).

[2] = test system: Agaricus bisporus crude tyrosinase (Sigma); experiment: Substrate specificity by oxygen consumption measurements, commercial Agaricus tyrosinase; assay type: biochemical; settings: for Agaricus tyr Relative oxygen consumption (%): mono-phenols
Experimental: as §1, §2

Trichoderma reesei = experiment: Plate test screening for tyrosinase activity from T. reesei; assay type: cell-based; settings: T. reesei on Malt Extract agar with indicator
Experimental: The indicators for tyrosinase activity screening were selected according to literature. L-Tyrosine, p-cresol, p-coumaric acid, tyramine, 3-hydroxy antranilic acid, and catechin were used in concentrations shown in Table 1. Trichoderma reesei was grown on Malt Extract agar containing the selected indicators (Table 1) (Difco) at 37° C. for 48 days. Possible colour changes on the plates were observed visually.

TYR2 [3] = experiment: Tyrosinase activity assay monitoring dopachrome formation at 475 nm; assay type: biochemical, Trichoderma reesei
Experimental: The activity was also measured on L-tyrosine (Sigma) in concentration of 2 mM. Both activity assays were carried out in 0.1 M sodium phosphate buffer (pH 7.0) at 25° C. monitoring dopachrome formation at 475 nm. The molar extinction coefficient ε 3400 M^−1 cm^−1 (Robb, 1984) was used. Measurements were carried out by using a two-beam spectrophotometer (Lambda 20, Perkin-Elmer, Über-lingen, Germany). Activities were expressed as nanokatals.
The result was also confirmed by determining the enzyme activity on L-Dopa and L-tyrosine by following oxygen consumption in enzymatic reaction. […] The effect of SDS (Sigma) on tyrosinase activity was measured using different concentrations of SDS in the activity assay.

[4] = L-/DL-/D-tyrosine, L-tyrosine = 100
[5] = mono-phenols, in relation to L-tyrosine, 2.5 mM substrate, pH 7.0, 24 μg TYR2
[6] = in relation to L-tyrosine, 2.5 mM substrate, pH 7.0, 50 μg mushroom tyrosinase
[7] = di- and tri-phenolic compounds, in relation to L-Dopa, 2.5 mM substrate, pH 7.0, 24 μg TYR2
[8] = di- and tri-phenolic compounds, in relation to L-Dopa, 2.5 mM substrate, pH 7.0, 50 μg mushroom tyrosinase
[9] = di-peptides, in relation to L-tyrosine, 2.5 mM substrate, pH 7.0

Compound: Nc1c(O)cccc1C(=O)O [3-Hydroxyanthranilic acid]
TYR2 Relative oxygen consumption (%) (TYR2 [1]; [5]): 0%
Reaction with indicator in plate test (Trichoderma reesei): clear positive reactions
Agaricus tyr Relative oxygen consumption (%) [2, 6]: 0%

Compound: Nc1ccc(O)cc1 [4-Aminophenol]
TYR2 Relative oxygen consumption (%) (TYR2 [1]; [5]): 8%
Agaricus tyr Relative oxygen consumption (%) [2, 6]: 9%

Compound: Oc1cc(O)c2c(c1)O[C@H](c1ccc(O)c(O)c1)[C@@H](O)C2 [(+)-Catechin hydrate]
TYR2 Relative oxygen consumption (%) (TYR2 [1]; [7]): 220%
Agaricus tyrosinase Relative oxygen consumption (%) [2, 8]: 282%

Compound: Oc1cc(O)c2c(c1)O[C@H](c1ccc(O)c(O)c1)[C@H](O)C2 [(−)-Epicatechin]
TYR2 Relative oxygen consumption (%) (TYR2 [1]; [7]): 106%
Agaricus tyrosinase Relative oxygen consumption (%) [2, 8]: 286%

Compound: COc1cc(/C=C/C(=O)O)ccc1O [Ferulic acid]
TYR2 Relative oxygen consumption (%) (TYR2 [1]; [5]): 0%
Agaricus tyr Relative oxygen consumption (%) [2, 6]: 0%

Compound: Oc1ccccc1 [Phenol]
TYR2 Relative oxygen consumption (%) (TYR2 [1]; [5]): 121%
Agaricus tyr Relative oxygen consumption (%) [2, 6]: 85%

Compound: Oc1ccccc1O [Pyrocatechol]
TYR2 Relative oxygen consumption (%) (TYR2 [1]; [7]): 88%
Agaricus tyrosinase Relative oxygen consumption (%) [2, 8]: 328%

Compound: Oc1cccc(O)c1O [Pyrogallol]
TYR2 Relative oxygen consumption (%) (TYR2 [1]; [7]): 55%
Agaricus tyrosinase Relative oxygen consumption (%) [2, 8]: 248%

Compound: CCCCCCCCCCCCOS(=O)(=O)[O-].[Na+] [SDS, sodium dodecyl sulfate]
Tyrosinase activity left in presence of SDS (TYR2 [3]; 0.5 mM SDS in the activity assay): 50%

Compound: O=C(O)C=Cc1ccccc1O [o-Coumaric acid]
TYR2 Relative oxygen consumption (%) (TYR2 [1]; [5]): 0%
Agaricus tyr Relative oxygen consumption (%) [2, 6]: 0%

Compound: Catechin
Reaction with indicator in plate test (Trichoderma reesei): clear positive reactions

Continued, in another order:

Agaricus tyrosinase Relative oxygen consumption (%) ([2]; L-/DL-/D-dopa, L-dopa = 100): 118%
Compound: NC(Cc1ccc(O)c(O)c1)C(=O)O (racemic) [DL-dopa]
TYR2 Relative oxygen consumption (%) (TYR2 [1]; L-/DL-/D-dopa, L-dopa = 100): 46%

Agaricus tyrosinase Relative oxygen consumption (%) [2]: 102%
Compound: NC(Cc1ccc(O)cc1)C(=O)O (racemic) [DL-tyrosine]
TYR2 Relative oxygen consumption (%) (TYR2 [1]; [4]): 40%

Agaricus tyr Relative oxygen consumption (%) [2, 6]: 0%
Compound: Oc1ccc(S)cc1 [4-Mercaptophenol]
TYR2 Relative oxygen consumption (%) (TYR2 [1]; [5]): 0%

Agaricus tyrosinase Relative oxygen consumption (%) ([2]; L-/DL-/D-dopa, L-dopa = 100): 106%
Compound: N[C@H](Cc1ccc(O)c(O)c1)C(=O)O [D-dopa]
TYR2 Relative oxygen consumption (%) (TYR2 [1]; L-/DL-/D-dopa, L-dopa = 100): 18%

Agaricus tyrosinase Relative oxygen consumption (%) [2]: 61%
Compound: N[C@H](Cc1ccc(O)cc1)C(=O)O [D-tyrosine]
TYR2 Relative oxygen consumption (%) (TYR2 [1]; [4]): 7%

Agaricus tyrosinase Relative oxygen consumption (%) ([2]; L-/DL-/D-dopa, L-dopa = 100): 100%
Agaricus tyrosinase Relative oxygen consumption (%) [2, 8]: 100%
Compound: N[C@@H](Cc1ccc(O)c(O)c1)C(=O)O [L-Dopa, L-3,4 dihydroxyphenylalanine]
TYR2 Relative oxygen consumption (%) (TYR2 [1]; L-/DL-/D-dopa, L-dopa = 100): 100%
TYR2 Relative oxygen consumption (%) (TYR2 [1]; [7]): 100%
Activity on L-Dopa compared with L-tyrosine (TYR2 [3]; 15 mM L-Dopa, 2 mM L-tyrosine, pH 7.0, 25° C.): approximately six times higher activity values than L-tyrosine

Reaction with indicator in plate test (Trichoderma reesei): clear positive reactions
Agaricus tyrosinase Relative oxygen consumption (%) [2]: 100%
Agaricus tyrosinase Relative oxygen consumption (%) [2, 9]: 100%
Agaricus tyr Relative oxygen consumption (%) [2, 6]: 100%
Compound: N[C@@H](Cc1ccc(O)cc1)C(=O)O [L-Tyrosine]
TYR2 Relative oxygen consumption (%) (TYR2 [1]; [4]): 100%
TYR2 Relative oxygen consumption (%) (TYR2 [1]; [9]): 100%
TYR2 Relative oxygen consumption (%) (TYR2 [1]; [5]): 100%

Reaction with indicator in plate test (Trichoderma reesei): clear positive reactions
Agaricus tyr Relative oxygen consumption (%) [2, 6]: 85%
Compound: NCCc1ccc(O)cc1 [Tyramine]
TYR2 Relative oxygen consumption (%) (TYR2 [1]; [5]): 42%

Agaricus tyr Relative oxygen consumption (%) [2, 6]: 0%
Compound: O=C(O)C=Cc1ccc(O)cc1 [p-Coumaric acid]
TYR2 Relative oxygen consumption (%) (TYR2 [1]; [5]): 390%

Agaricus tyr Relative oxygen consumption (%) [2, 6]: 104%
Compound: Cc1ccc(O)cc1 [p-Cresol]
TYR2 Relative oxygen consumption (%) (TYR2 [1]; [5]): 172%

Agaricus tyr Relative oxygen consumption (%) [2, 6]: 157%
Compound: OCCc1ccc(O)cc1 [p-Tyrosol]
TYR2 Relative oxygen consumption (%) (TYR2 [1]; [5]): 346%
